The experiment relates to Dsg2^mut/mut mice. The experiment can be described thus: Myocardial histology, TUNEL, immunofluorescence and immunoperoxidase in Dsg2^mut/mut mice. It is filed as in vivo. The protocol:
Three cohorts of mice at 8 weeks of age were anesthetized and implanted with subcutaneous osmotic mini-pumps (Alzet, Model 1004). These included: 1) Dsg2^mut/mut mice with pumps containing 50 μg/μL Bay11-7082 in a vehicle of 65% DMSO, 15% ethanol, and 20% saline; 2) Dsg2^mut/mut mice with pumps containing an equivalent volume of vehicle; and 3) wildtype mice with pumps containing vehicle. Mice in cohort 1 received 5 mg/kg/day of Bay11-7082 by continuous infusion; those in cohorts 2 and 3 received an equivalent volume of vehicle each day for 4 weeks. At 12 weeks of age, mice were re-anesthetized and new Alzet pumps were implanted for an additional 4 weeks of treatment.
Immunofluorescence staining was used to characterize the distribution of selected proteins at cell-cell junctions as previously reported.^6,15 Deparaffinized slide-mounted myocardial sections (5 μm thick) were rehydrated and heated in citrate buffer (10 mmol/L, pH 6.0) to enhance specific immunostaining. After being cooled to room temperature, tissue sections were simultaneously permeabelized and blocked by incubating them in PBS containing 1% Triton X-100, 3% normal goat serum and 1% bovine serum albumin. The sections were then incubated first with primary antibodies and then with Cy3-conjugated goat anti-rabbit IgG (Jackson Immunolabs, 1:400). Primary antibodies included rabbit polyclonal anti-Cx43 (SIGMA C6219, 1:200), anti-N-cadherin (SIGMA C3678, 1:400), anti-plakoglobin (Thermo Fisher Scientific PA5-17320, 1:500), anti-GSK3β (Cell Signaling Technology 27C10, 9315S, 1:80) and anti-SAP97 (Abcam, ab134156, 1:200). Immunostained preparations were visualized by confocal microscopy. Additional sections prepared with Masson trichrome and hematoxylin & eosin stains were examined by light microscopy.
Immunoperoxidase staining was used to detect expression of selected cytokines in sections of mouse myocardium as previously reported.^12 Slide-mounted paraffin sections were heated to 60° C. for 80 minutes, cooled to room temperature, deparaffinized, and rehydrated. Antigen retrieval was achieved by heating the samples in citrate buffer (pH 6.0) to boiling followed by cooling to room temperature. Immunohistochemical staining was performed using conventional methods (Universal DAKO EnVision System; peroxidase). Once endogenous peroxidase activity had been blocked, primary antibody was applied followed by incubation with horseradish peroxidase-labeled polymer. The reaction was completed with an enzyme/substrate system, with diaminobenzidine as the chromogen substrate. The tissue was counterstained with Harris hematoxylin. Primary antibodies included rabbit polyclonal anti-TNFα (AbCam ab34674, 1:50 dilution), anti-IL-1(3 (AbCam ab9722, 1:500) and anti-MCP-1α (Novus Biologicals NBP2-41209, 1:250). In each experiment, control, vehicle-treated and drug-treated samples were batched to ensure identical staining and signal-generating conditions.
Immunoperoxidase staining using conventional techniques was also used to detect T-cells and macrophages in myocardial tissue sections from Dsg2^mut/mut mice. T-cells were identified using an anti-CD3 antibody (Abcam ab16669, 1:200 dilution) and macrophages were marked with an anti-CD68 antibody (Abcam ab127055, 1:400). After standard development in diaminobenzidine, sections were counterstained with hematoxylin and examined qualitatively by light microscopy.

The mark [1] stands for this setting: Dsg2^mut/mut mice, continuous infusion over 8 weeks.

Consider `Cc1ccc(S(=O)(=O)/C=C/C#N)cc1` [Bay 11-7082], for which, under setting [1], the “abnormal distributions of plakoglobin, Cx43, GSK3β and SAP97” value is “normalized”; the “amount of ventricular myocardial necrosis and fibrosis” value is “marked reduction”; the “number of apoptotic cells seen by TUNEL labeling” value is reported as “significant reduction”. Also, the “abnormal distributions of plakoglobin, Cx43, GSK3β and SAP97” value (Dsg2^mut/mut mice, continuous infusion over 8 weeks, listed as Bay11-7082) is reported as “fully corrected”. The “immunoreactive signal intensity for IL-1β, TNFα and MCP-1α in myocytes and inflammatory cells” value (myocardial sections of Dsg2^mut/mut mice) is reported as “reduced”. Moreover, the “total number of infiltrating inflammatory cells in the heart” value (survey of myocardial sections, Dsg2^mut/mut mice) is recorded as “reduced”.

Source of the values: patent publication US20210161868A1, “ANTI-INFLAMMATORY THERAPY IN ARRHYTHMOGENIC CARDIOMYOPATHY (ACM)” (Beth Israel Deaconess Medical Center, Inc., priority 2018, published 2021).
